Legend:
[1] = biological target: Ribosomal protein S6 kinase alpha-1 (Homo sapiens, UniProt Q15418); test: Selectivity interaction (Kinase panel (DSF assay)) EUB0001559a RPS6KA1
[2] = biological target: T1, MAP/microtubule affinity-regulating kinase 4 (Homo sapiens) (UniProt Q96L34); conditions: at 10 µM
T1 sequence (whole entry): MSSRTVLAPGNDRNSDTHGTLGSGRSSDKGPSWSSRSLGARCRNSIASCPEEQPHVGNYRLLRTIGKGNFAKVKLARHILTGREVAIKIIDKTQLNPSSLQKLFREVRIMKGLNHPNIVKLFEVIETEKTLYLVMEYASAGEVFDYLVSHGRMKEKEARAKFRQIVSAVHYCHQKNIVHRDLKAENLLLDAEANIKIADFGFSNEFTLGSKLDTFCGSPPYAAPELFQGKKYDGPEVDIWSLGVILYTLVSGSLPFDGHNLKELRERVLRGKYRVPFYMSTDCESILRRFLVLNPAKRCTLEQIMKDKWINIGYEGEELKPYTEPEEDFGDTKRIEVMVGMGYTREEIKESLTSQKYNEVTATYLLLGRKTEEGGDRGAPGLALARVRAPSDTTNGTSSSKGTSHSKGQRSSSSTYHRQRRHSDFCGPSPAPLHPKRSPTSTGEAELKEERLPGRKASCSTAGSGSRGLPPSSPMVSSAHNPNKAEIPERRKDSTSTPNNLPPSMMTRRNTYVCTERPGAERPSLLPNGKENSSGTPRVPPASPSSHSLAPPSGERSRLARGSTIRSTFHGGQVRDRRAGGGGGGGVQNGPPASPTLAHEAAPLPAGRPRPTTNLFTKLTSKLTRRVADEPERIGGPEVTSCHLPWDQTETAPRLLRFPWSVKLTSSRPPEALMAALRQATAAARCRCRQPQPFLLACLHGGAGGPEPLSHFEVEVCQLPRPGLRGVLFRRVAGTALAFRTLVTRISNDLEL

[3] = biological target: Receptor-interacting serine/threonine-protein kinase 2 (Homo sapiens, UniProt O43353); test: Selectivity interaction (LanthaScreen Eu Kinase Binding Assay) EUB0001632a RIPK2; conditions: at 10 µM
[4] = biological target: Transcription initiation factor TFIID subunit 1-like (Homo sapiens) (UniProt Q8IZX4); test: Selectivity interaction (Bromodomain panel (DSF asssay)) EUB0000270b TAF1L
[5] = biological target: T2, Serine/threonine-protein kinase Chk1 (Homo sapiens) (UniProt O14757); test: Selectivity interaction (ActivX KiNativ screen (kinase selectivity in THP-1 cell lysates)) EUB0000639a CHEK1; assay type: subcellular; conditions: lysate
T2 sequence (whole entry): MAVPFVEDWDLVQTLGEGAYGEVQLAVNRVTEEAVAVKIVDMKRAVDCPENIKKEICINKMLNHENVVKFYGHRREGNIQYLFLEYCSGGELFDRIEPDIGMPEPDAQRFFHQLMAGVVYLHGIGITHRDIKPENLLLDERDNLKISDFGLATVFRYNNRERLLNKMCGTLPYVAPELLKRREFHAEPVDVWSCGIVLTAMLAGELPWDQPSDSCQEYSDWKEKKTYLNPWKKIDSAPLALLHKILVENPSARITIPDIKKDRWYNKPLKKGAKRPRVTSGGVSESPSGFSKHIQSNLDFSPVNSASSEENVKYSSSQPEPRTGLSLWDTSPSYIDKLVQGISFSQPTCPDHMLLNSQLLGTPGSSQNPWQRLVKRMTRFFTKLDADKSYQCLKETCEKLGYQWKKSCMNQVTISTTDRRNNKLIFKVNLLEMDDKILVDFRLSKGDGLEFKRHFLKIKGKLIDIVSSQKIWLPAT

[6] = biological target: T3, Serine/threonine-protein kinase ICK (Homo sapiens) (UniProt Q9UPZ9); test: Selectivity interaction (KinomeScan (DiscoverX)) EUB0001049a ICK; conditions: at 1 µM
T3 sequence (whole entry): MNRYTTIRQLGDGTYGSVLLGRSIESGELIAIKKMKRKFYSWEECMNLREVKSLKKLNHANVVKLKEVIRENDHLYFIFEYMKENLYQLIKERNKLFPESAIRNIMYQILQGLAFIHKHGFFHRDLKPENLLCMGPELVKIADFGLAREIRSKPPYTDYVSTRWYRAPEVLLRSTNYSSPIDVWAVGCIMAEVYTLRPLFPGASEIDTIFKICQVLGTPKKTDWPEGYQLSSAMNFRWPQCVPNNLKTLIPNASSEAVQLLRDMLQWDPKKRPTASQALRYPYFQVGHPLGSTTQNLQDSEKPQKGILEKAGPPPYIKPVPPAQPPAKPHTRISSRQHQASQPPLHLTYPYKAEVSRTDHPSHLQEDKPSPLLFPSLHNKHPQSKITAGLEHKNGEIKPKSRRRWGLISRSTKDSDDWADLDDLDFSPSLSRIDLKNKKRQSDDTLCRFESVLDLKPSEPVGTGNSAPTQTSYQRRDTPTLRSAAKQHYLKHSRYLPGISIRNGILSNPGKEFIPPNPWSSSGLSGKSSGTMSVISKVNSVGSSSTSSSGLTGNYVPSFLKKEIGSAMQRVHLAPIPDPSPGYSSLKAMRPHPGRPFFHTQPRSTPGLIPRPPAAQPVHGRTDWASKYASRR

[7] = biological target: Tyrosine-protein kinase BTK (Homo sapiens, UniProt Q06187); conditions: at 10 µM
[8] = biological target: Serine/threonine-protein kinase MARK1 (Homo sapiens) (UniProt Q9P0L2); test: Selectivity interaction (KinomeScan (DiscoverX)) EUB0001619a MARK1; conditions: at 1 µM
[9] = biological target: T4, Dual specificity mitogen-activated protein kinase kinase 5 (Homo sapiens) (UniProt Q13163); test: Selectivity interaction (KinomeScan (DiscoverX)) EUB0001619a MAP2K5; conditions: at 1 µM
T4 sequence (whole entry): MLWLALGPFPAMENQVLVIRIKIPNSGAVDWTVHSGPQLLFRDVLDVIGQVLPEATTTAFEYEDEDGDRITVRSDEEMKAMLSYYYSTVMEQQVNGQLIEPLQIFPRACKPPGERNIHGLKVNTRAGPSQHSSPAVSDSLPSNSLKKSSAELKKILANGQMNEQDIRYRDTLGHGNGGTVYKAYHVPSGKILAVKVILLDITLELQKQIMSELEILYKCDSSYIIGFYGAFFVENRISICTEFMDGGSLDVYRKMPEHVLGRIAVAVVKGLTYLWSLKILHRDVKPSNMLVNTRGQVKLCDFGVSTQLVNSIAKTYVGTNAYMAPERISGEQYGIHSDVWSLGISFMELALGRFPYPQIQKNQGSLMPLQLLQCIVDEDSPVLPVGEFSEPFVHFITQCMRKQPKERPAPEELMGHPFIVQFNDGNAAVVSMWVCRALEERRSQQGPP

Sequence of Transcription initiation factor TFIID subunit 1-like (Homo sapiens) (Q8IZX4 whole entry): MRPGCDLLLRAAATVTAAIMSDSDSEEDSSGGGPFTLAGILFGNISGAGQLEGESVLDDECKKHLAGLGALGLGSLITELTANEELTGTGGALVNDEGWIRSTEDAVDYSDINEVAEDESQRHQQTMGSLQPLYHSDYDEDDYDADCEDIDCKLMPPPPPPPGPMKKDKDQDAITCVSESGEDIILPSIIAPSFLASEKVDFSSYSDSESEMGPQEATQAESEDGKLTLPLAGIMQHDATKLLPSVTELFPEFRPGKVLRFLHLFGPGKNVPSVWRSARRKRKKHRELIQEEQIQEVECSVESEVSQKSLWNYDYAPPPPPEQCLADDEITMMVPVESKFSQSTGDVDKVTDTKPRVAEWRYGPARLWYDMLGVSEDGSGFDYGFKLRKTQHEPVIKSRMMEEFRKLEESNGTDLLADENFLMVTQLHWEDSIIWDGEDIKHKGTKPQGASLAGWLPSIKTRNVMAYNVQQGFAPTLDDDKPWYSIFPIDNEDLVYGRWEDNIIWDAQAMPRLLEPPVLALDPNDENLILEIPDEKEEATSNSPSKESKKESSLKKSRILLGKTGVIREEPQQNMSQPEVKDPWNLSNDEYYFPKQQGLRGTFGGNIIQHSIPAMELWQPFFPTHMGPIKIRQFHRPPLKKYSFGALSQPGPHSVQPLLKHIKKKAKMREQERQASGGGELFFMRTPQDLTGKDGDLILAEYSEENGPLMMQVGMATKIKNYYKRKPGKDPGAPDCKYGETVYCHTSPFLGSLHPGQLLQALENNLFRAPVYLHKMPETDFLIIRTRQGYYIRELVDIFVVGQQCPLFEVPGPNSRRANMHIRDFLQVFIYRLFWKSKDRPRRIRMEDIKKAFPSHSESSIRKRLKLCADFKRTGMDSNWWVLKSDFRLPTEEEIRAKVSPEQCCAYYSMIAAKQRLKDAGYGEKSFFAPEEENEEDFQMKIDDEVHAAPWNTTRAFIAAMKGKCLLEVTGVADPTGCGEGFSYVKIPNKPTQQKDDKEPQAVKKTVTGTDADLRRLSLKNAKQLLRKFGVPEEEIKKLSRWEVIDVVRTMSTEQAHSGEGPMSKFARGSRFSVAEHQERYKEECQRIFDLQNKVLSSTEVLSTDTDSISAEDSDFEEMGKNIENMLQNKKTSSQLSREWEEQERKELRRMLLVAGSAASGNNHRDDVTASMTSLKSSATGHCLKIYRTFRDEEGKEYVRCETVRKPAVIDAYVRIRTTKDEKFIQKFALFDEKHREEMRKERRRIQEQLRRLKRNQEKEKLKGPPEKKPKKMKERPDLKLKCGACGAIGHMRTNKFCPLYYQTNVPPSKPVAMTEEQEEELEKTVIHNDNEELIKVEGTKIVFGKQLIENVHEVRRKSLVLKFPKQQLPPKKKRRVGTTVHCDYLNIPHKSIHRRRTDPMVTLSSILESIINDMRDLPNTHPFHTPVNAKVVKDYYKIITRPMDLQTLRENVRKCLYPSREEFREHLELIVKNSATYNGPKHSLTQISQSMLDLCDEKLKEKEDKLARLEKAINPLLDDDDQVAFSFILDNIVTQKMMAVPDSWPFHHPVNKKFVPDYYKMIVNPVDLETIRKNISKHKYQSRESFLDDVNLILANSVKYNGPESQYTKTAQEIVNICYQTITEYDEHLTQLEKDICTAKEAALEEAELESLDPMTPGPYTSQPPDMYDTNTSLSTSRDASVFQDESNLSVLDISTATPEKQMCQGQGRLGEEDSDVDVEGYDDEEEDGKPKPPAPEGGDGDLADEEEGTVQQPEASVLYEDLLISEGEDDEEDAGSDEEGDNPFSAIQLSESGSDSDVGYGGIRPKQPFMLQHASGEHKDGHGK
Sequence of Serine/threonine-protein kinase MARK1 (Homo sapiens) (Q9P0L2 whole entry, looked up): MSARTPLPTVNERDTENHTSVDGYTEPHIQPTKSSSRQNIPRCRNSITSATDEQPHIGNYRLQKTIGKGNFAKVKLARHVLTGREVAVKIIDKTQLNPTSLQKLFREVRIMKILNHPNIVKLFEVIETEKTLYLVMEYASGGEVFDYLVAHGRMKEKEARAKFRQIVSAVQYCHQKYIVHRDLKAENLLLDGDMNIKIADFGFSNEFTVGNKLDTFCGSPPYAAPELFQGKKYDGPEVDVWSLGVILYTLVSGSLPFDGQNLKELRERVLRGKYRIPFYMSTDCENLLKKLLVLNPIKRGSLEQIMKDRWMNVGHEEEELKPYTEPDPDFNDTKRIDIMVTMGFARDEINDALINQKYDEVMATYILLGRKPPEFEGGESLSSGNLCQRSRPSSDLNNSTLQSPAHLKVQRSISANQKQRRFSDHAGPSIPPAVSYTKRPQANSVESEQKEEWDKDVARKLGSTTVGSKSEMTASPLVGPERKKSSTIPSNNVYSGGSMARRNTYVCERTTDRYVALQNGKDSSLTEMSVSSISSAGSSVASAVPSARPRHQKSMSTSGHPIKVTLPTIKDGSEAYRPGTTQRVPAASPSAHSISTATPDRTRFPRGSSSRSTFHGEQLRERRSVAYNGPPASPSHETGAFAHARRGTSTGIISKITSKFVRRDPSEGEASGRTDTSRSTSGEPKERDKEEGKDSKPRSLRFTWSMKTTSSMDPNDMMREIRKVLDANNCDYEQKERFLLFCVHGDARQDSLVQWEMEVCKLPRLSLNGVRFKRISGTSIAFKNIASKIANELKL
Sequence of Tyrosine-protein kinase BTK (Q06187 whole entry): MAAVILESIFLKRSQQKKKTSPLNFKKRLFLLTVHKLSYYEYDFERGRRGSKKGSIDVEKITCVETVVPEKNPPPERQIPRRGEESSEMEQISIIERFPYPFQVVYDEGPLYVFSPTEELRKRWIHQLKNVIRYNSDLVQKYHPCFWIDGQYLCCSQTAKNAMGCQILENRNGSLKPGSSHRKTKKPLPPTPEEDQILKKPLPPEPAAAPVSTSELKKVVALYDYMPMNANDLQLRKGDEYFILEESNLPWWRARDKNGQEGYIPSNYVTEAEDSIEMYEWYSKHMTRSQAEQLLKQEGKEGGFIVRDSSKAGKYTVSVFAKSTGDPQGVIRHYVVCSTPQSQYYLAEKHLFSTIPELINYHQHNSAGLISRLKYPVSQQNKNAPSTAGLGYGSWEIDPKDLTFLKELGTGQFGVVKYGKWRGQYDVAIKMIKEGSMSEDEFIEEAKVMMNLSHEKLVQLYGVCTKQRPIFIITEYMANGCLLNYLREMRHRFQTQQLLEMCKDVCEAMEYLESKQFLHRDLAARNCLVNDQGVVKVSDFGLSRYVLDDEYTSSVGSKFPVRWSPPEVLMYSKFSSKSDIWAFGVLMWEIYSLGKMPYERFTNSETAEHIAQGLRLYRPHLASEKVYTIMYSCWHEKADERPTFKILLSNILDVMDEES
Sequence of Ribosomal protein S6 kinase alpha-1 (Q15418 whole entry): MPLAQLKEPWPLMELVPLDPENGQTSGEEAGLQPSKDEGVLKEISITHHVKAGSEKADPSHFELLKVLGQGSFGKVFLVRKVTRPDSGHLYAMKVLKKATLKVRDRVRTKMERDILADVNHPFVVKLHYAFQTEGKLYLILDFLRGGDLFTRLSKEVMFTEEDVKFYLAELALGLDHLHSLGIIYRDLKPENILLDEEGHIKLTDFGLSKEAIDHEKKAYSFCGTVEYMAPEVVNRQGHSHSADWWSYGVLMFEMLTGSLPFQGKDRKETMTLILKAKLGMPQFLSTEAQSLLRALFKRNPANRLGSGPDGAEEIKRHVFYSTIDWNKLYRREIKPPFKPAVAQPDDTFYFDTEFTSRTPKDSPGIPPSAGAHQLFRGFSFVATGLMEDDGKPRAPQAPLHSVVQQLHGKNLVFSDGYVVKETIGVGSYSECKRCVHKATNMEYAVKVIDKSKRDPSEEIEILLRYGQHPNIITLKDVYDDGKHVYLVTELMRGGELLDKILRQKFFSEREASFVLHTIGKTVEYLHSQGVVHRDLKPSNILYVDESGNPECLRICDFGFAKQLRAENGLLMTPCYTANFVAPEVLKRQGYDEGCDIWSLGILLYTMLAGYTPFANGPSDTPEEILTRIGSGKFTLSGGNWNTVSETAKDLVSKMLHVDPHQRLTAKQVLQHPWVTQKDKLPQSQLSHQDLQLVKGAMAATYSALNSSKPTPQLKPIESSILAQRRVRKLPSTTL
Sequence of Receptor-interacting serine/threonine-protein kinase 2 (O43353 whole entry): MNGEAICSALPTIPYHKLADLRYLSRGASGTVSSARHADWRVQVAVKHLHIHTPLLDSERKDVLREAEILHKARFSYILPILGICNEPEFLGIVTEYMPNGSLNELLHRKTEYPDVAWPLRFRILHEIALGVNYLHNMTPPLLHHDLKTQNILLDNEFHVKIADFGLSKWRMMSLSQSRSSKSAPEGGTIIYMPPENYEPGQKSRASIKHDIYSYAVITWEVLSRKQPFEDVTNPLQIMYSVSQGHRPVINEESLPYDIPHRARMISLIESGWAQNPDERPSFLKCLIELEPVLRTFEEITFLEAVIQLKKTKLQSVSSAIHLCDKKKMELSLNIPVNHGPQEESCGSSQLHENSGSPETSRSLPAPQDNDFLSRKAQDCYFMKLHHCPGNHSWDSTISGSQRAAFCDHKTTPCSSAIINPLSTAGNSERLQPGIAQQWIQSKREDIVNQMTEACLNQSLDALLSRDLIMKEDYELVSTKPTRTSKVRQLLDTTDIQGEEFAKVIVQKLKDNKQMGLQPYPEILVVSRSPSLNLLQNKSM

## CN(C(=O)c1cnn2cccnc12)c1cc2c(cc1N1CCOCC1)C(=O)N(C[C@@H](F)C(C)(C)O)C2
[1]
  dTM: 0.5 K

## Cc1cc([C@@H](C)Nc2ccccc2C(=O)O)c2nc(N3CCOCC3)cc(=O)n2c1 [AZD-6482]
[2]
  % of control: 100%

## Cn1cc(-n2cnc3c(NCc4nc5cc(Cl)c(Cl)cc5[nH]4)nc(N4CCOCC4)nc32)cn1
[3]
  % of inhibition: -13.3%

## Cc1cc(CN)cc(C)c1-c1ncn(C)c1-c1cncn1C
[4]
  dTM: -1.79 K

## CC[C@@H]1[C@H](F)C(=O)N[C@@H]1COc1nccc2cc(C(N)=O)c(OC)cc12 [ZIMLOVISERTIB]
[5]; at 0.01 µM
  % of inhibition: -7.6%
[5]; at 0.04 µM
  % of inhibition: 11.8%
[5]; at 0.2 µM
  % of inhibition: -8.5%
[5]; at 1 µM
  % of inhibition: 0.6%
[5]; at 5 µM
  % of inhibition: -18.5%

## COc1cc(Nc2nc(C)cc(-c3cnn4nc(OC)ccc34)n2)cc(C(F)(F)F)c1
[6]
  % of control: 85%

## C=CC(=O)Nc1cc(-n2c(=O)ccc3cnc4ccc(-c5ccc(NS(C)(=O)=O)cc5)cc4c32)ccc1C
[7]
  % of control: 0.7%

## N#Cc1cccc(-c2c[nH]c3ncnc(N4CCOCC4)c23)c1
[8]
  % of control: 91%
[9]
  % of control: 14%

From ChEMBL document CHEMBL5465560, “Selectivity Literature for EUbOPEN Chemogenomic Library” (2024)
